Measurements published in US10954305B2 (Immunomedics, Inc., priority 2016, dated 2021).

What was measured:
esophageal cancer = assay: Phase I/II clinical trial of IMMU-132, esophageal; type: in vivo, human
MDA-MB-468 TNBC tumors = assay: MDA-MB-468 TNBC xenograft therapy; type: in vivo, nude mice; conditions: one animal each, tumors progressed after irinotecan
[1] = test system: Capan-1 human pancreatic cancer xenografts; conditions: 1 and 6 h
[2] = test system: NCI-N87 human gastric tumors; assay: NCI-N87 xenograft therapy (FIG. 23); conditions: 0.35 mg twice weekly for four weeks
recombinant mouse Trop-2 = target: T1, recombinant mouse Trop-2 (Mus musculus, UniProt Q8BGV3); assay: Trop-2 ELISA; type: binding
T1 construct: purchased Sino Biological, Inc. 50922-MO8H
T1 sequence (Q8BGV3 25-317): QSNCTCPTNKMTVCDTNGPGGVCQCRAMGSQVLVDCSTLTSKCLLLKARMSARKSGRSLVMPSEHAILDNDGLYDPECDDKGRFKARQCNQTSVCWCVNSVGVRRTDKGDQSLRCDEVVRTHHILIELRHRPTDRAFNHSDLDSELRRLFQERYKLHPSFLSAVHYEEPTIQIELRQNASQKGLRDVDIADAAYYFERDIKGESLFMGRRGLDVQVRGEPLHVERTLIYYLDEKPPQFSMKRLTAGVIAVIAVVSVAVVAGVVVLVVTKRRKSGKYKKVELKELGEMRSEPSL
Description: Recombinant human Trop-2 with a His-tag (Sino Biological, Inc., Bejing, China; Cat #10428-H09H) and recombinant mouse Trop-2 with a His-Tag (Sino Biological, Inc., Cat #50922-MO8H) were plated onto Ni-NTA Hissorb strips (Qiagen GmbH Cat #35023) at 1 μg for 1 h at room temperature. The plate was washed four times with PBS-Tween (0.05%) wash buffer. Serial dilutions of hRS7 were made in 1% BSA-PBS dilution buffer to a test range of 0.1 ng/mL to 10 μg/mL. The plates were then incubated for 2 h at room temperature before being washed four times followed by the addition of a peroxidase conjugated secondary antibody (goat anti-human, Fc fragment specific; Jackson Immunoresearch Cat #109-036-098). After a 45-min incubation, the plate was washed and a substrate solution (o-phenylenediamine dihydrochloride (OPD); Sigma, Cat #P828) added to all the wells. Plates were incubated in the dark for 15 min before the reaction was stopped with 4N sulfuric acid. The plates were read at 450 nm on Biotek ELX808 plate reader. Data were analyzed and graphed using Prism GraphPad Software (v4.03) (Advanced Graphics Software, Inc.; Encinitas, Calif.).

Substance | PD (esophageal cancer; of 4 assessable patients) | PR (esophageal cancer; of 4 assessable patients) | duration of SD (esophageal cancer; patient 25, 18 then 13.5 mg/kg) [weeks] | decrease in tumor size on re-treatment (MDA-MB-468 TNBC tumors) [%] | free SN-38G lower than free SN-38 in serum [1] | partial responders [2] | cross-reactivity (recombinant mouse Trop-2)
IMMU-132 | 1 | 1 | 30 | 60 | 3- to 7 times | 6 of 7 | –
hRS7 IgG | – | – | – | – | – | – | no cross-reactivity with the murine Trop-2
